Here are results for 20 compounds from PubChem BioAssay (NCI).

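Interpolation was linear, between the two tested concentrations surrounding the appropriate level; five concentrations were tested over 48 hours in 96-well plates. Abbreviation: GI50, concentration required for 50% inhibition of growth. TGI: concentration producing complete growth inhibition.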

Test systems include UACC-62 melanoma; IGROV1 ovarian; SK-MEL-28 melanoma; HCC-2998 colon; U251 CNS; MDA-MB-435; A549 NSCLC; MCF7 breast; NCI-H460 lung; SF-539 CNS.
Common to all, as to assay: NCI anticancer screen, dose series, 48 h

Consider `Nc1ncnc2c1ccn2C/C=C\CO`, for which the TGI in the experiment with UACC-62 melanoma, with IGROV1 ovarian, in the experiment on SK-MEL-28 melanoma, in the experiment on HCC-2998 colon, in the experiment on U251 CNS and in the experiment with MDA-MB-435 was more than 100 µM each time. In addition, the TGI in the experiment with A549 NSCLC, in the experiment with MCF7 breast, in the experiment on NCI-H460 lung and with SF-539 CNS was more than 100 µM in each case.
As for `CC(C)(C)NC(NC(C)(C)C)=C(/C=C(/Cl)[N+](=O)[O-])[N+](=O)[O-]`, the TGI with UACC-62 melanoma was more than 100 µM; in the experiment with IGROV1 ovarian, more than 100 µM; in the experiment with SK-MEL-28 melanoma it was more than 100 µM; with HCC-2998 colon it was more than 100 µM; in the experiment on U251 CNS, more than 100 µM; with MDA-MB-435 it was 38.3 µM. Further, the TGI in the experiment with A549 NSCLC was 95.3 µM; in the experiment on MCF7 breast, more than 100 µM; in the experiment with NCI-H460 lung it was more than 100 µM; in the experiment with SF-539 CNS, more than 100 µM.
Take `O=C(O)CC(CC(=O)O)C(=O)O`: the TGI in the experiment on UACC-62 melanoma, with IGROV1 ovarian, in the experiment with SK-MEL-28 melanoma, in the experiment on HCC-2998 colon, with U251 CNS and in the experiment on MDA-MB-435 was more than 100 µM throughout. The TGI in the experiment on A549 NSCLC, in the experiment on MCF7 breast, in the experiment on NCI-H460 lung and with SF-539 CNS was more than 100 µM in each case.
Turning to `Oc1cn(-c2ccc(Cl)cc2)nc1-c1nnc(-c2ccccc2)o1`, the TGI in the experiment on UACC-62 melanoma was more than 51.1 µM; in the experiment on IGROV1 ovarian it was more than 53.4 µM; in the experiment with SK-MEL-28 melanoma, 53.1 µM; in the experiment with HCC-2998 colon, 5.91 µM; in the experiment with U251 CNS it was 30.8 µM; with MDA-MB-435 it was 10.4 µM. Further, the TGI with A549 NSCLC was 31.5 µM; in the experiment on MCF7 breast it was 7.16 µM; in the experiment on NCI-H460 lung it was 13.8 µM; with SF-539 CNS, 27 µM. In the experiment with HCC-2998 colon, the GI50 is 0.739 µM.
Take `CC1(c2cccs2)CC(c2cccs2)=C(C#N)C(=C(C#N)C#N)N1` (stereo unspecified): the TGI was 29.6 µM in the experiment on UACC-62 melanoma; 33.4 µM with IGROV1 ovarian; 50.2 µM with SK-MEL-28 melanoma; 31.1 µM in the experiment with HCC-2998 colon; 31 µM with U251 CNS; 31.8 µM in the experiment with MDA-MB-435. Moreover, the TGI with A549 NSCLC amounted to 48.6 µM; with MCF7 breast, 39.1 µM; in the experiment on NCI-H460 lung, 43.9 µM; with SF-539 CNS, 70 µM.
In the case of `COc1cc(C2SCC(=O)N2c2ccccn2)cc(OC)c1OC` (stereo unspecified), the TGI in the experiment on UACC-62 melanoma was more than 100 µM; in the experiment with IGROV1 ovarian it was more than 100 µM; in the experiment with SK-MEL-28 melanoma, more than 100 µM; with HCC-2998 colon it was more than 100 µM; with U251 CNS, more than 100 µM; with MDA-MB-435, 77.6 µM. Moreover, the TGI with A549 NSCLC, with MCF7 breast, in the experiment on NCI-H460 lung and with SF-539 CNS was more than 100 µM throughout.
Take `COC(=O)CCC1=CCC2(SC)C(=O)Nc3cccc1c32` (stereo unspecified): the TGI with UACC-62 melanoma, in the experiment on IGROV1 ovarian, in the experiment with SK-MEL-28 melanoma, in the experiment on HCC-2998 colon, in the experiment on U251 CNS and in the experiment on MDA-MB-435 was more than 100 µM throughout. Besides, the TGI in the experiment on A549 NSCLC, with MCF7 breast, in the experiment with NCI-H460 lung and in the experiment on SF-539 CNS was more than 100 µM each time.
For the compound `COc1cc(/C=C2\C[C@H]3[C@@H]4CCc5cc(O)ccc5[C@H]4CC[C@]3(C)C2=O)cc(OC)c1OC`, the TGI in the experiment on UACC-62 melanoma was 52.2 µM; with IGROV1 ovarian, 32.8 µM; with SK-MEL-28 melanoma it was 24.8 µM; with HCC-2998 colon, 35.9 µM; with U251 CNS it was 38.1 µM; with MDA-MB-435 it was 48.6 µM. Besides, the TGI in the experiment with A549 NSCLC is 31.8 µM; in the experiment with MCF7 breast, more than 100 µM; in the experiment with NCI-H460 lung it was more than 100 µM; in the experiment on SF-539 CNS, 90.5 µM.
In the case of `CCCC[C@@H]1CCN2C[C@@H](O)[C@@H](O)[C@@H]2[C@H]1O`, the TGI in the experiment with UACC-62 melanoma, in the experiment on IGROV1 ovarian, in the experiment with SK-MEL-28 melanoma, in the experiment with HCC-2998 colon, with U251 CNS and in the experiment with MDA-MB-435 was more than 100 µM in each case. Besides, the TGI with A549 NSCLC, with MCF7 breast, in the experiment with NCI-H460 lung and in the experiment on SF-539 CNS was more than 100 µM throughout.
Regarding `CN(Cc1cnc2nc(N)nc(N)c2n1)c1ccc(C(=O)NC(CCC(=O)NCCC(P(=O)(O)O)P(=O)(O)O)C(=O)O)cc1` (stereo unspecified), the TGI with UACC-62 melanoma, with IGROV1 ovarian, in the experiment with SK-MEL-28 melanoma, with HCC-2998 colon, with U251 CNS and with MDA-MB-435 was more than 100 µM throughout. Also, the TGI with A549 NSCLC, with MCF7 breast, with NCI-H460 lung and with SF-539 CNS was more than 100 µM each time.
On to `O=c1cnn(C2OC(C(O)CO)C(O)C2O)c(=O)[nH]1` (stereo unspecified), for which the TGI with UACC-62 melanoma, in the experiment with IGROV1 ovarian, in the experiment with SK-MEL-28 melanoma, in the experiment on HCC-2998 colon, with U251 CNS and in the experiment with MDA-MB-435 was more than 100 µM throughout. Also, the TGI with A549 NSCLC, in the experiment on MCF7 breast, in the experiment with NCI-H460 lung and with SF-539 CNS was more than 100 µM in each case.
`O=C1NC(NNc2ccccc2)=N/C1=C\c1ccccc1O`: the TGI in the experiment on UACC-62 melanoma, in the experiment with IGROV1 ovarian, in the experiment on SK-MEL-28 melanoma, in the experiment with HCC-2998 colon, with U251 CNS and in the experiment with MDA-MB-435 was more than 100 µM in each case. Moreover, the TGI with A549 NSCLC, in the experiment with MCF7 breast, in the experiment with NCI-H460 lung and with SF-539 CNS was more than 100 µM in each case.
As for `N=C1/C(=C/c2ccc(F)cc2)C(=O)N=C2SC=NN12`, the TGI in the experiment on UACC-62 melanoma, in the experiment on IGROV1 ovarian, in the experiment on SK-MEL-28 melanoma, in the experiment on HCC-2998 colon, in the experiment with U251 CNS and in the experiment on MDA-MB-435 was more than 100 µM in each case. Besides, the TGI with A549 NSCLC, in the experiment on MCF7 breast, in the experiment with NCI-H460 lung and with SF-539 CNS was more than 100 µM throughout.
Take `C=C(CCC/C(C)=C/C=C/[C@]1(C)CCCc2ccoc21)CC(=O)O`: the TGI with UACC-62 melanoma, with IGROV1 ovarian, in the experiment on SK-MEL-28 melanoma, in the experiment with HCC-2998 colon, with U251 CNS and in the experiment on MDA-MB-435 was more than 100 µM throughout. In addition, the TGI in the experiment with A549 NSCLC, with MCF7 breast, in the experiment on NCI-H460 lung and in the experiment with SF-539 CNS was more than 100 µM in each case.
With `CC(=O)N(C)c1ccc(Nc2cc(C)[nH]c3ccc4ncnc4c23)cc1`, the TGI turned out to be 31.8 µM in the experiment with UACC-62 melanoma; 64.4 µM in the experiment on IGROV1 ovarian; 36.5 µM with SK-MEL-28 melanoma; 22.3 µM in the experiment on HCC-2998 colon; 30.6 µM in the experiment on U251 CNS; 23.3 µM in the experiment with MDA-MB-435. The TGI in the experiment on A549 NSCLC was 21.7 µM; in the experiment on MCF7 breast, 26 µM; in the experiment on NCI-H460 lung it was 12.3 µM; in the experiment on SF-539 CNS, 18.6 µM.
For `OCC1OC(c2cccc3cc(O)c(O)cc23)CC1O` (stereo unspecified), the TGI in the experiment on UACC-62 melanoma, with IGROV1 ovarian, with SK-MEL-28 melanoma, in the experiment with HCC-2998 colon, in the experiment with U251 CNS and with MDA-MB-435 was more than 100 µM each time. The TGI in the experiment with A549 NSCLC, with MCF7 breast, with NCI-H460 lung and in the experiment on SF-539 CNS was more than 100 µM in each case.
As for `CCOC(=O)C1=C(C)N(Cc2ccc(Cl)cc2Cl)C2(O)C=CC(=O)C3C(=O)N(c4ccccc4)C(=O)C132` (stereo unspecified), the TGI with UACC-62 melanoma was 3.74 µM; with IGROV1 ovarian, 3.51 µM; with SK-MEL-28 melanoma, 3.53 µM; in the experiment with HCC-2998 colon, 3.54 µM; in the experiment with U251 CNS, 3.8 µM; in the experiment on MDA-MB-435, 7.24 µM. In addition, the TGI in the experiment with A549 NSCLC was found to be 5.74 µM; in the experiment on MCF7 breast, 5.11 µM; with NCI-H460 lung, 5.77 µM; in the experiment on SF-539 CNS, 5.38 µM.
For the compound `COc1ccc(N2C(=O)CC(C3CC(C(C)(C)C)CCC3=O)C2=O)cc1` (stereo unspecified), the TGI in the experiment on UACC-62 melanoma, with IGROV1 ovarian, with SK-MEL-28 melanoma, in the experiment with HCC-2998 colon, in the experiment on U251 CNS and in the experiment on MDA-MB-435 was more than 100 µM in each case. In addition, the TGI in the experiment on A549 NSCLC, with MCF7 breast, with NCI-H460 lung and in the experiment with SF-539 CNS was more than 100 µM each time.
With `CCOC(=O)c1c(NC(=O)c2cccs2)sc2c1CCCC2`, the TGI was more than 100 µM with UACC-62 melanoma; more than 100 µM in the experiment with IGROV1 ovarian; more than 100 µM in the experiment on SK-MEL-28 melanoma; more than 100 µM with HCC-2998 colon; more than 91.9 µM in the experiment with U251 CNS; more than 100 µM in the experiment with MDA-MB-435. In addition, the TGI is more than 100 µM in the experiment on A549 NSCLC, more than 100 µM with MCF7 breast, more than 100 µM with NCI-H460 lung and 57.4 µM in the experiment with SF-539 CNS.
Consider `CS(=O)(=O)O[C@H]1CN2C[C@@H](O)[C@@H](O)[C@H]2[C@H]1CO`, for which the TGI in the experiment with UACC-62 melanoma, in the experiment on IGROV1 ovarian, with SK-MEL-28 melanoma, in the experiment on HCC-2998 colon, with U251 CNS and in the experiment on MDA-MB-435 was more than 100 µM in each case. For the same compound, the TGI with A549 NSCLC, in the experiment with MCF7 breast, with NCI-H460 lung and with SF-539 CNS was more than 100 µM in each case.
